# Experimental data from patent US20240148889A1, “STABILIZED TRIOXACARCIN ANTIBODY DRUG CONJUGATES AND USES THEREOF” (President and Fellows of Harvard College, priority 2020, published 2024).
# “Also recorded” adds a separate entry of the source.
# Columns and labels:
# [1] = test system: SF-268; conditions: CNS cancer cell line; cited from earlier work
# [2] = test system: tumor; conditions: cited from earlier work
# [3] = test system: H-460; conditions: lung cancer cell line; cited from earlier work
# [4] = test system: LXFL 529L; conditions: lung cancer cell line; cited from earlier work
# [5] = test system: gram-positive; conditions: cited from earlier work
# [6] = test system: MCF-7; conditions: mammary cancer cell line; cited from earlier work
# [7] = test system: H460 cells; experiment: Cell proliferation assay (resazurin, CellTiter-Blue), H460; format: cell-based; conditions: for IC50: Homo sapiens, NCI-H460, 48 h, 2 days incubation, determined in triplicate; for cellular toxicity against H460 cells relative to the parent epoxide: relative to parent epoxide 1
# Procedure: (§1) Cell Culture: Cell line NCI-H460, was purchased from American Type Culture Collection (ATCC). H460 cells were maintained in RPMI-1640 medium and HT-29 cells were maintained in McCoy's 5A medium, supplemented with 10% fetal bovine serum (Life Technologies, UK).
# (§2) Cell Proliferation Assay: Cells were plated in black-walled 96-well plates (3000-4000 cells per well). Stock solutions of each compound were diluted serially and the resulting solutions were administrated to cells to achieve final concentrations of 1.1 nM to 2.5 μM in 100 μL total volume. After incubating at 37° C. (5% CO2) for 2 days (H460), 20 μL of resazurin solution (Promega CellTiter-Blue® Cell Viability Assay) was added to each well. After incubating at 37° C. for 4.0 h, the fluorescence (560 nm excitation/590 nm emission) was recorded using a microplate reader (SpectraMax i3) as a measure of viable cells. IC50 values, determined in triplicate, were calculated using a four-parameter logistic equation.
# [8] = test system: self-complementary duplex DNA oligonucleotide d(AATTACGTAATT); experiment: DNA alkylation of duplex oligonucleotide, gel electrophoresis and LC-MS; format: biochemical
# From the text: In developing the compounds described herein, it was anticipated that reversible opening of the epoxide with a latent leaving group would reduce the reactivity of the warhead while attached to the antibody but would allow for reformation of the epoxide under appropriate conditions. After exploration of a variety of possible epoxide adducts using a potent analog (1, Me-ddx), it was discovered that halohydrin FSTs were not only readily synthesized under Lewis- or Brønsted-acid catalysis, but also reverted to the epoxide cleanly in pH 7.4 cell growth media at 37° C. (Scheme 7). […] The DNA-alkylating capability of the bromohydrin FST 3 in comparison to a set of FST analogs of varying potency by incubation with a self-complementary duplex DNA oligonucleotide d([…]) for 4 h at 23° C. then analysis by gel electrophoresis and LC-MS was investigated.
# [9] = test system: NCI-N87 (HER2+); experiment: Cell proliferation assay, NCI-N87; format: cell-based; conditions: Homo sapiens
# [10] = test system: SK-BR-3 (HER2+); experiment: Cell proliferation assay, SK-BR-3; format: cell-based; conditions: Homo sapiens
# Procedure: as §2
# [11] = test system: HT-29 (HER2−); experiment: Cell proliferation assay, HT-29; format: cell-based; conditions: Homo sapiens
# Procedure: as §1, §2
# [12] = Liberation of bromohydrin by immolative spacer cyclization in buffer; format: physicochemical
# From the text: In order to prevent premature reversion to the epoxide, a system in which the trioxacarcin prodrug would be linked through the tertiary alcohol of the halohydrin was envisioned. Therefore, epoxide formation could only occur once the payload had been released from the antibody upon delivery to the cellular target. Despite recent advances in the field, technology for linkage through alcohol functional groups is limited. Synthesis of benzyl ether, ester, carbonate, carbamate, diphosphate, and silyl linkers at the tertiary alcohol of 3 (bromohydrin) through previously reported methods all failed. Indeed, the electron withdrawing substituents surrounding the halohydrin alcohol (two P-acetals, a y-acetal and a bromide) coupled with the steric encumbrance they impose prevented reaction of this alcohol with nearly all electrophiles evaluated. […] It was believed that this diamine spacer would release free bromohydrin after peptidase cleavage of the linker. Simultaneous Boc deprotection of both the phenol and amine with trifluoroacetic acid (TFA) provided the TFA salt of the amine 9 after concentration, which was evaluated immediately for liberation of bromohydrin 3. […] Modifications of the diamine spacer unit to increase the rate of cyclization were unsuccessful. […]
# [13] = Compound Stability Assay (buffer, 37° C., LC-MS); format: physicochemical
# Procedure: Compound Stability Assay: In a 1.5 mL screw-top conical plastic vial, the desired compound as a solution in DMSO (5 mM, 6 μL, 30 nmol) was mixed with a solution of N-acetylcysteine in DMSO (10 mM, 6 μL, […], 2 equiv) to quench the maleimide. The mixture was diluted with either pH 5.0 sodium acetate or pH 7.4 phosphate buffer containing 8 mM N-acetylcysteine (282 μL). 1-naphthalene acetic acid in DMSO (5 mM, 6 μL, 30 nmol) was added as an internal standard. In the case of testing free drug stability, no N-acetylcysteine solution was added and instead the amount of buffer added was increased an equivalent amount to compensate (288 μL total buffer). The vial was placed in a heating block at 37° C. and protected from direct light. 25 μL aliquots of the reaction mixture were removed at various time points and analyzed by LC-MS. LC-MS peaks were integrated within the Agilent LC-MS software and the areas of each peak were normalized to 1-napthalene acetic acid at 280 nm. Percent compound remaining is defined as the normalized peak area at a given time point divided by the normalized peak area at 0 hours×100%.
# [14] = target: Cathepsin B (Homo sapiens, UniProt P07858); experiment: Release Kinetics Assay with Cathepsin B; format: biochemical; conditions: pH 5.0, 37° C.
# Procedure: Release Kinetics Assay: In a 1.5 mL screw-top conical plastic vial, the desired compound as a solution in DMSO (5 mM, 6 μL, 30 nmol) was mixed with a solution of N-acetylcysteine in DMSO (10 mM, 6 μL, […], 2 equiv) to quench the maleimide. The mixture was diluted with pH 5.0 sodium acetate buffer containing 8 mM N-acetylcysteine (255 μL). 1-napthalene acetic acid in DMSO (5 mM, 6 μL, 30 nmol) was added as an internal standard. A 9.2 U/mL solution of Cathepsin B in pH 5.0 buffer was added. The vial was placed in a heating block at 37° C. and protected from direct light. 25 μL aliquots of the reaction mixture were removed at various time points and analyzed by LC-MS. LC-MS peaks were integrated within the Agilent LC-MS software and the areas of each peak were normalized to 1-napthalene acetic acid at 280 nm. Percent drug-linker remaining is defined as the normalized peak area at a given time point divided by the normalized peak area at 0 hours×100%.
compound,measurement,setting,value
COc1c2c(c(O)c3c4c(c(C)cc13)[C@@H]1O[C@@]3(C(OC)OC)O[C@@H]1[C@@](O[C@H]1C[C@@H](O)[C@@](O)(C(C)=O)[C@H](C)O1)(O4)[C@@]31CO1)C(=O)[C@@H](O)C[C@@H]2O[C@H]1C[C@@](C)(O)[C@H](OC(C)=O)[C@H](C)O1 [Trioxacarcin A],IC70 SF-268,[1],subnanmolar
same,anti-tumor activity in murine models,[2],anti-tumor activity
same,IC70 H-460,[3],subnanmolar
same,IC70 LXFL 529L,[4],subnanmolar
same,gram-positive antibiotic activity,[5],gram-positive antibiotic activity
same,IC70 MCF-7,[6],subnanmolar
COc1c2c(c(O)c3c4c(c(C)cc13)C1OC3(C(OC)OC)OC1C(O[C@H]1C[C@@H](O)[C@@](O)(C(C)=O)[C@H](C)O1)(O4)C3(O)CO)C(=O)C(O)CC2O[C@H]1C[C@@](C)(O)[C@H](OC(C)=O)[C@H](C)O1 (stereo partly shown) [Trioxacarcin B],anti-tumor activity in murine models,[2],anti-tumor activity
same,gram-positive antibiotic activity,[5],gram-positive antibiotic activity
COc1c2c(c(O)c3c4c(c(C)cc13)C1OC3(C(OC)OC)OC1C(OC1CC(O)C(O)(C(C)O)C(C)O1)(O4)C31CO1)C(=O)C(O)CC2OC1COC(C)(OC(C)=O)C(C)(O)C1 (stereo not shown) [Trioxacarcin C],anti-tumor activity in murine models,[2],anti-tumor activity
same,gram-positive antibiotic activity,[5],gram-positive antibiotic activity
COc1c2c(c(O)c3c4c(c(C)cc13)C1OC3(C(OC)OC)OC1[C@@](OC)(O4)[C@@]3(O)CCl)C(=O)CCC2 (stereo partly shown) [compound 2],potency relative to the bromohydrin,"[7]; H460 cells, relative to bromohydrin 3",an order of magnitude less potent
same,IC50,[7]; H460 cells,21 nM
COc1c2c(c(O)c3c4c(c(C)cc13)C1OC3(C(OC)OC)OC1[C@@](OC)(O4)[C@@]3(O)CBr)C(=O)CCC2 (stereo partly shown) [compound 3],reversion to the epoxide during DNA incubation,[8]; 4 h at 23° C.,did not revert to the epoxide
same,DNA alkylation,[8]; incubation with d(AATTACGTAATT) for 4 h at 23° C.,did not alkylate DNA
same,IC50,[7]; H460 cells,2 nM
same,cellular toxicity against H460 cells relative to the parent epoxide,[7],no loss in cellular toxicity
COc1c2c(c(O)c3c4c(c(C)cc13)C1OC3(C(OC)OC)OC1[C@@](OC)(O4)[C@@]3(O)CI)C(=O)CCC2 (stereo partly shown) [compound 4],IC50,[9],1 nM
same,IC50,[7]; H460 cells,4 nM
same,cellular toxicity against H460 cells relative to the parent epoxide,[7],no loss in cellular toxicity
same,IC50,[10],4 nM
same,IC50,[11],7 nM
CNCCNC(=O)O[C@]1(CBr)C2(C(OC)OC)OC3c4c(C)cc5c(OC)c6c(c(O)c5c4O[C@]1(OC)C3O2)C(=O)CCC6 (stereo partly shown) [compound 9],liberation of bromohydrin 3 through diamine spacer cyclization,"[12]; 37° C., pH 7.4 or 5.0 buffer",no liberation of bromohydrin was observed
CNCCCC(=O)O[C@]1(CBr)C2(C(OC)OC)OC3c4c(C)cc5c(OC)c6c(c(O)c5c4O[C@]1(OC)C3O2)C(=O)CCC6 (stereo partly shown) [compound 13],liberation of the bromohydrin through ester spacer cyclization,"[12]; pH 7.4 or 5.0, extended incubation at 37° C. or 50° C.",failed to liberate the bromohydrin
COc1c2c(c(O)c3c4c(c(C)cc13)C1OC3(C(OC)OC)OC1[C@@](OC)(O4)[C@]3(CBr)OCN(CCS(C)(=O)=O)C(=O)OCc1ccc(NC(=O)[C@H](C)NC(=O)[C@@H](NC(=O)CCCCCN3C(=O)C=CC3=O)C(C)C)cc1)C(=O)CCC2 (stereo partly shown) [compound 19],stability of drug-linker quenched with N-acetyl cysteine,"[13]; 37° C., pH 7.4 buffer",stable for days
same,payload release upon exposure to Cathepsin B,[14],excellent release kinetics; also recorded: rapidly liberated FST-bromohydrin payload 3
COCCOCCOCCOCCOCCOCCOCCC(=O)NCCCC[C@H](NC(=O)CCOCCOCCOCCOCCN1C(=O)C=CC1=O)C(=O)N[C@H](C(=O)N[C@@H](C)C(=O)Nc1ccc(COC(=O)N(CCS(C)(=O)=O)CO[C@]2(CBr)C3(C(OC)OC)OC4c5c(C)cc6c(OC)c7c(c(O)c6c5O[C@]2(OC)C4O3)C(=O)CCC7)cc1)C(C)C (stereo partly shown) [compound 27],stability of drug-linker at pH 5.0 and 7.4,"[13]; 37° C., pH 5.0 and pH 7.4",exceptionally stable
same,free drug released,"[13]; after 1 week at pH 7.4, 37° C.",no detectable free drug released
same,payload release upon exposure to Cathepsin B,[14],rapidly releases payload
